Experimental data reported in US20080009418A1, “Selective Inhibitors” (Alchemia LTD., priority 2004, published 2008).

How the values were obtained:
[1] = target: T1, Human δ-opioid (DOP) (Homo sapiens, UniProt P41143); test: Radioligand binding, human δ-opioid (DOP) membranes, FlashPlate, [3H]-Bremazocine; conditions: compound at 10 μM; [3H]-Bremazocine
T1 construct: purchased Perkin Elmer Biosignal
Procedure, shortened: (§1)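 Cloned human receptor membranes were coated onto FlashPlate wells and incubated with radioligand and compound (added from a 0.5 mM DMSO daughter plate) for 1 hour at room temperature in the dark. Scintillation counting gave percent inhibition, with DMSO defining total and reference ligand defining non-specific binding.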

[2] = target: T2, Human κ-Opioid (KOP) (Homo sapiens, UniProt P41145); test: Radioligand binding, human κ-opioid (KOP) membranes, filtration, [3H]-Diprenorphine; conditions: compound at 10 μM; [3H]-Diprenorphine
T2 construct: purchased Perkin Elmer Biosignal
Procedure, shortened: (§2)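 Filtration binding on cloned human receptor membranes (1 Unit/well), [125I]-Substance P for NK1 and [3H]-Diprenorphine for KOP, 1 h at room temperature. Filters PEI-presoaked, washed with cold 50 mM Tris-HCl pH 7.4, counted by scintillation; percent inhibition calculated, reference ligand defining non-specific binding.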

[3] = target: T3, Human Melanocortin (MC3) (Homo sapiens, UniProt P41968); test: Radioligand binding, human melanocortin MC3 membranes, FlashPlate, [125I]-NDP-αMSH; conditions: compound at 10 μM; [125I]-NDP-αMSH
T3 construct: purchased Perkin Elmer Biosignal
Procedure, shortened: as §1

[4] = target: T4, Human Melanocortin (MC4) (Homo sapiens, UniProt P32245); test: Radioligand binding, human melanocortin MC4 membranes, FlashPlate, [125I]-NDP-αMSH; conditions: compound at 10 μM; [125I]-NDP-αMSH
T4 construct: purchased Perkin Elmer Biosignal
Procedure, shortened: as §1

[5] = target: T5, Human opioid (ORL1) (Homo sapiens, UniProt P41146); test: Radioligand binding, human opioid ORL1 membranes, FlashPlate, [125I]-Nociceptin; conditions: compound at 10 μM; [125I]-Nociceptin
T5 construct: purchased Perkin Elmer Biosignal
Procedure, shortened: as §1

[6] = target: T6, Mouse urotensin (mUR2) (Mus musculus, UniProt Q8VIH9); test: Radioligand binding, mouse urotensin mUR2 membranes, FlashPlate, [125I]-Urotensin II; conditions: compound at 10 μM; [125I]-Urotensin II
T6 construct: purchased Perkin Elmer Biosignal
T6 sequence (Q8VIH9 1-385): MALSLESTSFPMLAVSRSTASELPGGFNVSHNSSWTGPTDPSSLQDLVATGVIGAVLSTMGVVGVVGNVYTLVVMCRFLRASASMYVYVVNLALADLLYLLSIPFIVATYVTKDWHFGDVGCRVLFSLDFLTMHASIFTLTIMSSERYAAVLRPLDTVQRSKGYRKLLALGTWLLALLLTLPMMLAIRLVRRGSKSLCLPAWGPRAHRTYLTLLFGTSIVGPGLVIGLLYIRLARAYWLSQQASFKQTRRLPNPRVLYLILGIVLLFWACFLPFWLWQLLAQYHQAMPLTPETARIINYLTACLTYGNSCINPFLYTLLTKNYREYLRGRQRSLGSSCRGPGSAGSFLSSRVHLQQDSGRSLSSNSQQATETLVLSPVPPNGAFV
Procedure, shortened: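 Cloned mouse urotensin (mUR2) receptor membranes from Perkin Elmer Biosignal were immobilized in FlashPlate microplates using a proprietary coating. Each well got 19.5 μl buffer, then 0.5 μl of DMSO, reference ligand, or compound. Adding 5 μl of [125I]-Urotensin II, diluted to 5× final concentration in binding buffer, started binding. Plates were sealed with TopSeal-A and incubated 1 hour at room temperature in the dark. Wells were counted for 30 seconds each on a TopCount after a 60-second delay, and percentage inhibition was calculated.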

[7] = target: T7, Human neurokinin (NK1) (Homo sapiens, UniProt P25103); test: Radioligand binding, human neurokinin NK1 membranes, filtration, [125I]-Substance P; conditions: compound at 10 μM; [125I]-Substance P
T7 construct: purchased Perkin Elmer Biosignal
Procedure, shortened: as §2

[8] = target: T8, Human neuropeptide Y (NPY-Y1) (Homo sapiens, UniProt P25929); test: Radioligand binding, human neuropeptide Y NPY-Y1 membranes, FlashPlate, [125I]-PYY; conditions: compound at 10 μM; [125I]-PYY
T8 construct: purchased Perkin Elmer Biosignal
T8 sequence (P25929 1-384): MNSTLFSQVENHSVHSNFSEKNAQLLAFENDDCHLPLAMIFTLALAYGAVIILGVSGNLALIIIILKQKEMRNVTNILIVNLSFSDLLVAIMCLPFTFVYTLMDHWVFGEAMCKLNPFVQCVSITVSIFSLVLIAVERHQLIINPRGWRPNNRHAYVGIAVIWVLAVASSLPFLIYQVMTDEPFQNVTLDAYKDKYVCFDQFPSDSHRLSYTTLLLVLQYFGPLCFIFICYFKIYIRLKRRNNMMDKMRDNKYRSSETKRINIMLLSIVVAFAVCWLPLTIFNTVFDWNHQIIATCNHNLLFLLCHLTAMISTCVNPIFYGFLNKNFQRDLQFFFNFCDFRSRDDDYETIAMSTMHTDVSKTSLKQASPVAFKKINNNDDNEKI
Procedure, shortened: as §1

[9] = target: T9, Human μ-opioid (MOP) (Homo sapiens, UniProt P35372); test: Radioligand binding, human μ-opioid (MOP) membranes, FlashPlate, [3H]-Naloxone; conditions: compound at 10 μM; [3H]-Naloxone
T9 construct: purchased Perkin Elmer Biosignal
Procedure, shortened: as §1

[10] = target: T10, Human melanocortin (MC5) (Homo sapiens, UniProt P33032); test: Radioligand binding, human melanocortin MC5 membranes, FlashPlate, [125I]-NDP-αMSH; conditions: compound at 10 μM; [125I]-NDP-αMSH
T10 construct: purchased Perkin Elmer Biosignal
Procedure, shortened: as §1

[11] = target: T11, Human melanin-concentrating hormone (MCH1) (Homo sapiens, UniProt Q99705); test: Radioligand binding, human melanin-concentrating hormone MCH1 membranes, FlashPlate, [125I]-S36057; conditions: compound at 10 μM; [125I]-S36057
T11 construct: purchased Perkin Elmer Biosignal
Procedure, shortened: as §1

T1 sequence (P41143 whole entry): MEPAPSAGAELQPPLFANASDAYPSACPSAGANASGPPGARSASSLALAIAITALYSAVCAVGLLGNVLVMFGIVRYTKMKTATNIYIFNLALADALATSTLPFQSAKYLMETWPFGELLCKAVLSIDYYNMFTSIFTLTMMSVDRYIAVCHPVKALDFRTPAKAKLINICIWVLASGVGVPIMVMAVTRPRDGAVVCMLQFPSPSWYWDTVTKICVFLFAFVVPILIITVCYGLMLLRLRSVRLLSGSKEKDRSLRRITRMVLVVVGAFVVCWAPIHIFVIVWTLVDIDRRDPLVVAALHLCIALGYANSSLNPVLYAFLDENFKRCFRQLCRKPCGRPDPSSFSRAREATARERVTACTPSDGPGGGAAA
T11 sequence (Q99705 whole entry): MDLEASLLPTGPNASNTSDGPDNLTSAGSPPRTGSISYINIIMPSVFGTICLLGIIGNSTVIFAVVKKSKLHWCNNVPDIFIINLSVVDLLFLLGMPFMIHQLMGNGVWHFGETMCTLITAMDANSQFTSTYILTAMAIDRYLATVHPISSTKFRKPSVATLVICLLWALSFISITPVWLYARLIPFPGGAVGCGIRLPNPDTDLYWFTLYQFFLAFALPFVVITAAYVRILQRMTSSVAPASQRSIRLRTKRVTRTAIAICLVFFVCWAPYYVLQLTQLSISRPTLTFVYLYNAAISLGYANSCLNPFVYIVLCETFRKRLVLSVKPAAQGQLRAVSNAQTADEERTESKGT
T10 sequence (P33032 whole entry): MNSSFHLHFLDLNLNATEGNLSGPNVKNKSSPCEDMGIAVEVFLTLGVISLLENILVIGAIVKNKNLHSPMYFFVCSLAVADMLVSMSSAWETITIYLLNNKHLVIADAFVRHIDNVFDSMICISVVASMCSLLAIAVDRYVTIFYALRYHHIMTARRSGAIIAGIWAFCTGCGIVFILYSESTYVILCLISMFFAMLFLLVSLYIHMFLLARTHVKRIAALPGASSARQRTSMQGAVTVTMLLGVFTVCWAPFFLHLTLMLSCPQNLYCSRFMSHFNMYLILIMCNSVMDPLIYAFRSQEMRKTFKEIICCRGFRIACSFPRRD
T2 sequence (P41145 whole entry): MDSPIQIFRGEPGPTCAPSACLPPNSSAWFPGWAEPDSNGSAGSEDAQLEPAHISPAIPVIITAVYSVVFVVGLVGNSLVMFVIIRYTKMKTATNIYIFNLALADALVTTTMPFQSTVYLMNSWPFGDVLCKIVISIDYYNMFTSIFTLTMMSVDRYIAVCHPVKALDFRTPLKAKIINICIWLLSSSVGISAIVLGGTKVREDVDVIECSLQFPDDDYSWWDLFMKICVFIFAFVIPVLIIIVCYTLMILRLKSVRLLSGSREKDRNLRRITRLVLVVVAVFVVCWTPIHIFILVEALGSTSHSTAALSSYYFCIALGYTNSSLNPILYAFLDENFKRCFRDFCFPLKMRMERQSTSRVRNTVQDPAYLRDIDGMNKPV
T5 sequence (P41146 whole entry): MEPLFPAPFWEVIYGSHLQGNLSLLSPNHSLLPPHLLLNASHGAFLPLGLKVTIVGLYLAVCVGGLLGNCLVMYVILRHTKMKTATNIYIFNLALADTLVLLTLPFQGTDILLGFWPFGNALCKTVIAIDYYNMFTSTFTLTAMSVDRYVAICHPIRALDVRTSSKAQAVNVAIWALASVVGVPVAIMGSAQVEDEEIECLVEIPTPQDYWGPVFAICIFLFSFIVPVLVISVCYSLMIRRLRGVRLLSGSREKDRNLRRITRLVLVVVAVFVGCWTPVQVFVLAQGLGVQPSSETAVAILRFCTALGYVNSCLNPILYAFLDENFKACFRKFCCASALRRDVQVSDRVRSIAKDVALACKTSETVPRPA
T4 sequence (P32245 whole entry): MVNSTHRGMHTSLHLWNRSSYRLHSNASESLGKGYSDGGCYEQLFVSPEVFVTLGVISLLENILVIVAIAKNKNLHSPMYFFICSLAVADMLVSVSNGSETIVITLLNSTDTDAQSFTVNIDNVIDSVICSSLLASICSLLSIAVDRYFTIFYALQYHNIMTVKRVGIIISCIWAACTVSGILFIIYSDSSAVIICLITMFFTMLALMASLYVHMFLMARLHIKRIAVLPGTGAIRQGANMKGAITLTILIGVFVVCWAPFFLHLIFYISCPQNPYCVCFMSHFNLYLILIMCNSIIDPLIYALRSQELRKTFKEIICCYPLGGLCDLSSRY
T7 sequence (P25103 whole entry): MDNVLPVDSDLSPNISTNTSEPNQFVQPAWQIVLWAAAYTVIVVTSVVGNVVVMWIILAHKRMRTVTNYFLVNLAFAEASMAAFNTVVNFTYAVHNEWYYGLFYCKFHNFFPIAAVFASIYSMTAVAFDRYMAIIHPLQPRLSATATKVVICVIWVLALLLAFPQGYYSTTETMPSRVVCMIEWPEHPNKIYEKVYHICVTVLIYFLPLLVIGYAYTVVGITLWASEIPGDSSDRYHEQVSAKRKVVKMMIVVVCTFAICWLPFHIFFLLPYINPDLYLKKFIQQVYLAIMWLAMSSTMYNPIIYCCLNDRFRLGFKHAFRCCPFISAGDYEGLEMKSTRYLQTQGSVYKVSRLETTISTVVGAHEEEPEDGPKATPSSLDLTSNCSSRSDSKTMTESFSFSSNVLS
T3 sequence (P41968 whole entry): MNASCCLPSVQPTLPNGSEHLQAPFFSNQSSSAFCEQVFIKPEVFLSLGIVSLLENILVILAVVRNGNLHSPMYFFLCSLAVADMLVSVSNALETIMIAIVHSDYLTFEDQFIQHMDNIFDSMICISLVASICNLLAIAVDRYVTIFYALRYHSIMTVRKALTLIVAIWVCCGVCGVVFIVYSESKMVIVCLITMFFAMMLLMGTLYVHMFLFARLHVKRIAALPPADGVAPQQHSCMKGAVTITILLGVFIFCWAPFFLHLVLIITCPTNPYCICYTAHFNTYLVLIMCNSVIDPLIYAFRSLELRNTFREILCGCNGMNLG
T9 sequence (P35372 whole entry): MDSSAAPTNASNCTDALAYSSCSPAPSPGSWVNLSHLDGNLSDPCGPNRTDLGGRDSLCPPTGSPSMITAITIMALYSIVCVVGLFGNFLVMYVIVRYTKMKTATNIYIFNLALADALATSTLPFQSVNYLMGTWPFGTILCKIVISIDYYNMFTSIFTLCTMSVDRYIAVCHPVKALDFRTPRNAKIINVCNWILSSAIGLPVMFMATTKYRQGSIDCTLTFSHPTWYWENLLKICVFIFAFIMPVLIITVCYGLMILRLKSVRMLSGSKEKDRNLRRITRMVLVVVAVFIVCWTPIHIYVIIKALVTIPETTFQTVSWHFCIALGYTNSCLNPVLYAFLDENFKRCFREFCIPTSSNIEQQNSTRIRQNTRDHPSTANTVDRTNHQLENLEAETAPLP

Row | SMILES | A1 radioligand binding, percentage inhibition [1] | A2 radioligand binding, percentage inhibition [2] | A3 radioligand binding, percentage inhibition [3] | A4 radioligand binding, percentage inhibition [4] | A10 radioligand binding, percentage inhibition [5] | A11 radioligand binding, percentage inhibition [6] | A8 radioligand binding, percentage inhibition [7] | A9 radioligand binding, percentage inhibition [8] | A7 radioligand binding, percentage inhibition [9] | A5 radioligand binding, percentage inhibition [10] | A6 radioligand binding, percentage inhibition [11]
1 | CO[C@H]1[C@H](O)[C@@H](COCc2ccc(-c3ccccc3)cc2)OC(OCc2cccc(O)c2)[C@@H]1NC(=O)CCCN (stereo partly drawn) [compound 164] | − (“−” indicates less than 50% inhibition at 10 μM) | − (“−” indicates less than 50% inhibition at 10 μM) | − (“−” indicates less than 50% inhibition at 10 μM) | + (“+” indicates greater than 50% inhibition at 10 μM) | − (“−” indicates less than 50% inhibition at 10 μM) | − (“−” indicates less than 50% inhibition at 10 μM) | + (“+” indicates greater than 50% inhibition at 10 μM) | − (“−” indicates less than 50% inhibition at 10 μM) | − (“−” indicates less than 50% inhibition at 10 μM) | − (“−” indicates less than 50% inhibition at 10 μM) | − (“−” indicates less than 50% inhibition at 10 μM)
2 | CO[C@H]1[C@H](O)[C@@H](COCc2ccc3ccccc3c2)OC(OCc2cccc(O)c2)[C@@H]1NC(=O)CNC(=N)N (stereo partly drawn) [compound 165] | − (“−” indicates less than 50% inhibition at 10 μM) | − (“−” indicates less than 50% inhibition at 10 μM) | − (“−” indicates less than 50% inhibition at 10 μM) | − (“−” indicates less than 50% inhibition at 10 μM) | − (“−” indicates less than 50% inhibition at 10 μM) | − (“−” indicates less than 50% inhibition at 10 μM) | + (“+” indicates greater than 50% inhibition at 10 μM) | − (“−” indicates less than 50% inhibition at 10 μM) | − (“−” indicates less than 50% inhibition at 10 μM) | − (“−” indicates less than 50% inhibition at 10 μM) | − (“−” indicates less than 50% inhibition at 10 μM)
3 | CO[C@H]1[C@H](O)[C@@H](COCc2ccc3ccccc3c2)OC(OCc2cccc(O)c2)[C@@H]1NC(=O)CCNC(=N)N (stereo partly drawn) [compound 166] | − (“−” indicates less than 50% inhibition at 10 μM) | − (“−” indicates less than 50% inhibition at 10 μM) | − (“−” indicates less than 50% inhibition at 10 μM) | + (“+” indicates greater than 50% inhibition at 10 μM) | − (“−” indicates less than 50% inhibition at 10 μM) | − (“−” indicates less than 50% inhibition at 10 μM) | + (“+” indicates greater than 50% inhibition at 10 μM) | − (“−” indicates less than 50% inhibition at 10 μM) | − (“−” indicates less than 50% inhibition at 10 μM) | + (“+” indicates greater than 50% inhibition at 10 μM) | − (“−” indicates less than 50% inhibition at 10 μM)
